Where a name gives a salt, the structure may show the parent alone.
Assays:
[1] = target: T1, human sphingosine kinase type 1 (hSPHK1) (Homo sapiens, UniProt Q9NYA1); assay: Sphingosine kinase assay, recombinant human SPHK1 ([32P]S1P product, scintillation counting); type: biochemical; details: read-out: activity hSPHK1 (range estimate of KI)
T1 construct: made in house; host or cells: Sf9 insect cells (baculovirus)
Procedure: (§1) Recombinant baculovirus encoding human sphingosine kinase type 1 (SPHK1) was used to infect Sf9 insect cells and after 2-5 days, cleared lysates were prepared and used without further purification. Human SPHK2, which was partially purified from baculovirus-infected Sf9 cell lysates, was purchased from a commercial source. Sphingosine kinase assays were performed using standard protocols. Product [^32P]S1P was recovered by binding to cation exchange paper and quantified by scintillation counting.

[2] = target: T2, human sphingosine kinase type 2 (hSPHK2) (Homo sapiens, UniProt Q9NRA0); assay: Sphingosine kinase assay, recombinant human SPHK2 ([32P]S1P product, scintillation counting); type: biochemical; details: read-out: activity hSPHK2 (range estimate of KI)
T2 construct: purchased; host or cells: Sf9 insect cells (baculovirus)
T2 sequence (Q9NRA0 1-654): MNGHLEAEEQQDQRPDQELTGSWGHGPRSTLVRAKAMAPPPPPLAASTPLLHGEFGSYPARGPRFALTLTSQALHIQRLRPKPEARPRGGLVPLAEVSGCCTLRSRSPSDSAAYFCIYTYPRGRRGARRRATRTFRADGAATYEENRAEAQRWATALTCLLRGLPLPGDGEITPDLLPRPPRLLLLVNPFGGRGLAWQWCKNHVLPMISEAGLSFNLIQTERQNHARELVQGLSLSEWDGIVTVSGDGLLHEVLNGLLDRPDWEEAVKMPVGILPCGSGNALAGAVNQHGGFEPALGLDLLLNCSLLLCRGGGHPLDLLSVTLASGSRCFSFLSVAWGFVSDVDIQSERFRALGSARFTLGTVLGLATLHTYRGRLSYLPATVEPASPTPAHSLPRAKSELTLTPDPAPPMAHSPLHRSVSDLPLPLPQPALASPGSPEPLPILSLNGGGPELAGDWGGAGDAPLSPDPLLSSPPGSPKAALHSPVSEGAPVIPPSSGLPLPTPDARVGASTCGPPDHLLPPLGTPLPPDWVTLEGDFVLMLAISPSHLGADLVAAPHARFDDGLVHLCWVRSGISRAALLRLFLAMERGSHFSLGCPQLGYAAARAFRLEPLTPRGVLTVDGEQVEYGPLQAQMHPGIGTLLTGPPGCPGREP
Procedure: as §1

T1 sequence (Q9NYA1 whole entry): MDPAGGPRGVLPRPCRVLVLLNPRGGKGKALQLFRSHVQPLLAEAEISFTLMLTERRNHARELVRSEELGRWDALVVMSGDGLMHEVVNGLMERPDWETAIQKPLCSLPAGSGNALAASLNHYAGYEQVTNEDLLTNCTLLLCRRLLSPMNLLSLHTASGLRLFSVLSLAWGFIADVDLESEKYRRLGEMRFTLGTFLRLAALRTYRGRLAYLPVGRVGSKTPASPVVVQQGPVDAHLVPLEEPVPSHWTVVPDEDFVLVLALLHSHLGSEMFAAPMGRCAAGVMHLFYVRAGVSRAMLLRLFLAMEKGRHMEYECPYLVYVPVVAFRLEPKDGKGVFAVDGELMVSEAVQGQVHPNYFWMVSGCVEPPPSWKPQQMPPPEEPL

| Structure (SMILES) | Ki [1] | Ki [2] |
| --- | --- | --- |
| CCCCCCCn1cc(-c2noc([C@@H]3CCCN3C(=N)N)n2)c2ccccc21 [Compound 1A, (S)-amino(2-(3-(1-heptyl-1H-indol-3-yl)-1,2,4-oxadiazol-5-yl)pyrrolidin-1-yl)methaniminium chloride] | > 10 µM | > 10 µM |
| CC(C)=CCC/C(C)=C/COc1ccc(-c2noc([C@@H]3CCCN3C(=N)N)n2)cc1C(F)(F)F [Compound 93A, (S,E)-(2-(3-(4-((3,7-dimethylocta-2,6-dien-1-yl)oxy)-3-(trifluoromethyl)phenyl)-1,2,4-oxadiazol-5-yl)pyrrolidin-1-yl)(13-iodanylidene)methanamine hydrochloride] | > 10 µM | > 10 µM |
| N=C(N)N1CCC[C@H]1c1nc(-c2ccc3cc(OCc4cccc(Cl)c4)ccc3c2)no1 [Compound 68A, (S)-amino(2-(3-(6-((3-chlorobenzyl)oxy)naphthalen-2-yl)-1,2,4-oxadiazol-5-yl)pyrrolidin-1-yl)methaniminium chloride] | > 10 µM | > 10 µM |
| CCCCCCCCOc1c(C)cc(-c2noc([C@@H]3CCCN3C(=N)N)n2)cc1C [Compound 7B] | > 10 µM | < 1 µM |
| N=C(N)N1CC[C@H](O)[C@H]1c1nc(-c2ccc(OCCCC3CCCCC3)c(C(F)(F)F)c2)no1 [Compound 95A, amino((2S,3S)-2-(3-(4-(3-cyclohexylpropoxy)-3-(trifluoromethyl)phenyl)-1,2,4-oxadiazol-5-yl)-3-hydroxypyrrolidin-1-yl)methaniminium chloride] | 1 to 10 µM | < 1 µM |
| CCCCCCCCOc1ccc(-c2noc([C@@H]3[C@@H](CO)CCN3C(=N)N)n2)cc1C(F)(F)F [Compound 20a, 2,2,2-trifluoroacetate] | < 1 µM | < 1 µM |
| N=C(N)N1CCC[C@H]1c1nc(-c2ccc3cc(OCc4ccc(Br)cc4)ccc3c2)no1 [Compound 53A, (S)-amino(2-(3-(6-((4-bromobenzyl)oxy)naphthalen-2-yl)-1,2,4-oxadiazol-5-yl)pyrrolidin-1-yl)methaniminium chloride] | > 10 µM | 1 to 10 µM |
| CCCCCCCCOc1ccc(-c2noc([C@@H]3C[C@@H](F)CN3C(=N)N)n2)cc1C(F)(F)F [Compound 49A] | > 10 µM | < 1 µM |
| CCCCCCCCOc1ccc(-c2noc([C@@H]3C[C@H](F)CN3C(=N)N)n2)cc1C(F)(F)F [Compound 48A, (2S,4S)-4-fluoro-2-(3-(4-(octyloxy)-3-(trifluoromethyl)phenyl)-1,2,4-oxadiazol-5-yl)pyrrolidine-1-carboximidamide 2,2,2-trifluoroacetate] | > 10 µM | 1 to 10 µM |
| N=C(N)N1CC[C@H](O)[C@H]1c1nc(-c2ccc(OCC3CCCCC3)c(C(F)(F)F)c2)no1 [Compound 96A, amino((2S,3S)-2-(3-(4-(cyclohexylmethoxy)-3-(trifluoromethyl)phenyl)-1,2,4-oxadiazol-5-yl)-3-hydroxypyrrolidin-1-yl)methaniminium chloride] | < 1 µM | < 1 µM |
| CCCCCCCCCn1ccc2c(-c3noc([C@@H]4CCCN4C(=N)N)n3)cccc21 [Compound 10B, (S)-amino(2-(3-(1-nonyl-1H-indol-4-yl)-1,2,4-oxadiazol-5-yl)pyrrolidin-1-yl)methaniminium chloride] | > 10 µM | < 1 µM |
| CCCCCCCCOc1ccc(-c2noc([C@@H]3C[C@H](O)CN3C(=N)N)n2)cc1C(F)(F)F [Compound 9A, amino((2S,4S)-4-hydroxy-2-(3-(4-(octyloxy)-3-(trifluoromethyl)phenyl)-1,2,4-oxadiazol-5-yl)pyrrolidin-1-yl)methaniminium chloride] | > 10 µM | > 10 µM |

Second part, the molecule after the results:

| Ki [1] | Ki [2] | Structure (SMILES) |
| --- | --- | --- |
| > 10 µM | 1 to 10 µM | N=C(N)N1CCC[C@H]1c1nc(-c2ccc(CCC3CC3)c(C(F)(F)F)c2)no1 [Compound 38A, (S)-2-(3-(4-(2-cyclopropylethyl)-3-(trifluoromethyl)phenyl)-1,2,4-oxadiazol-5-yl)pyrrolidine-1-carboximidamide hydrochloride] |
| > 10 µM | < 1 µM | CC(C)(C)c1ccc(CCc2ccc(-c3noc([C@@H]4CCCN4C(=N)N)n3)cc2C(F)(F)F)cc1 [Compound 61A] |
| > 10 µM | > 10 µM | N=C(N)N1CCC[C@H]1c1nc(-c2ccc3cc(OCCc4ccc(C(F)(F)F)cc4)ccc3c2)no1 [Compound 54A, (S)-amino(2-(3-(6-(4-(trifluoromethyl)phenethoxy)naphthalen-2-yl)-1,2,4-oxadiazol-5-yl)pyrrolidin-1-yl)methaniminium chloride] |
| > 10 µM | < 1 µM | CCCc1ccc(CCc2ccc(-c3noc([C@@H]4CCCN4C(=N)N)n3)cc2C(F)(F)F)cc1 [Compound 35A, (S)-2-(3-(4-(4-propylphenethyl)-3-(trifluoromethyl)phenyl)-1,2,4-oxadiazol-5-yl)pyrrolidine-1-carboximidamide hydrochloride] |
| > 10 µM | < 1 µM | CCCCc1ccc(CCc2ccc(-c3noc([C@@H]4CCCN4C(=N)N)n3)cc2C(F)(F)F)cc1 [Compound 36A, (S)-2-(3-(4-(4-butylphenethyl)-3-(trifluoromethyl)phenyl)-1,2,4-oxadiazol-5-yl)pyrrolidine-1-carboximidamide hydrochloride] |
| > 10 µM | > 10 µM | CCCCCCCCn1ccc2ccc(-c3noc([C@@H]4CCCN4C(=N)N)n3)cc21 [Compound 75A, (S)-amino(2-(3-(1-octyl-1H-indol-6-yl)-1,2,4-oxadiazol-5-yl)pyrrolidin-1-yl)methaniminium chloride] |
| > 10 µM | < 1 µM | N=C(N)N1CCC[C@H]1c1nc(-c2ccc(OC/C=C/c3cccc(C(F)(F)F)c3)c(C(F)(F)F)c2)no1 [Compound 90A, (S,E)-amino(2-(3-(3-(trifluoromethyl)-4-((3-(3-(trifluoromethyl)phenyl)allyl)oxy)phenyl)-1,2,4-oxadiazol-5-yl)pyrrolidin-1-yl)methaniminium 2,2,2-trifluoroacetate] |
| > 10 µM | < 1 µM | CCCCCCCCCOc1ccc(-c2noc([C@@H]3CCCN3C(=N)N)n2)cc1C(F)(F)F [Compound 1B] |
| > 10 µM | > 10 µM | CCCCCCCCOc1ccc(-c2noc([C@@H]3CCCN3C(=N)N)n2)cc1F [Compound 11A, (S)-Amino(2-(3-(3-fluoro-4-(octyloxy)phenyl)-1,2,4-oxadiazol-5-yl)pyrrolidin-1-yl)methaniminium chloride] |
| > 10 µM | < 1 µM | CCCCCC=CCOc1ccc(-c2noc([C@@H]3CCCN3C(=N)N)n2)cc1C(F)(F)F [Compound 82A, (S)-amino(2-(3-(4-(oct-2-en-1-yloxy)-3-(trifluoromethyl)phenyl)-1,2,4-oxadiazol-5-yl)pyrrolidin-1-yl)methaniminium 2,2,2-trifluoroacetate] |
| 1 to 10 µM | < 1 µM | CCCCCCOc1ccc(-c2noc([C@@H]3CCCN3C(=N)N)n2)cc1C(F)(F)F [Compound 12B] |
| > 10 µM | < 1 µM | N=C(N)N1CCC[C@H]1c1nc(-c2ccc(CCC3CCCCC3)c(C(F)(F)F)c2)no1 [Compound 76A, (S)-amino(2-(3-(4-(2-cyclohexylethyl)-3-(trifluoromethyl)phenyl)-1,2,4-oxadiazol-5-yl)pyrrolidin-1-yl)methaniminium 2,2,2-trifluoroacetate] |
| > 10 µM | < 1 µM | N=C(N)N1CCC[C@H]1c1nc(-c2ccc(OCCCc3ccc(Cl)c(Cl)c3)c(C(F)(F)F)c2)no1 [Compound 30A, (S)-amino(2-(3-(4-(3-(3,4-dichlorophenyl)propoxy)-3-(trifluoromethyl)phenyl)-1,2,4-oxadiazol-5-yl)pyrrolidin-1-yl)methaniminium chloride] |
| 1 to 10 µM | < 1 µM | CCCCc1ccc(CCc2ccc(-c3noc([C@@H]4[C@@H](O)CCN4C(=N)N)n3)cc2C(F)(F)F)cc1 [Compound 37A, (2S,3S)-2-(3-(4-(4-butylphenethyl)-3-(trifluoromethyl)phenyl)-1,2,4-oxadiazol-5-yl)-3-hydroxypyrrolidine-1-carboximidamide hydrochloride] |
| > 10 µM | > 10 µM | C=CCCOc1ccc(-c2noc([C@@H]3CCCN3C(=N)N)n2)cc1C(F)(F)F [Compound 79A, (S)-2-(3-(4-(but-3-en-1-yloxy)-3-(trifluoromethyl)phenyl)-1,2,4-oxadiazol-5-yl)pyrrolidine-1-carboximidamide hydrochloride] |
| > 10 µM | < 1 µM | CCCC/C=C\CCOc1ccc(-c2noc([C@@H]3CCCN3C(=N)N)n2)cc1C(F)(F)F [Compound 85A, (S,Z)-amino(2-(3-(4-(oct-3-en-1-yloxy)-3-(trifluoromethyl)phenyl)-1,2,4-oxadiazol-5-yl)pyrrolidin-1-yl)methaniminium 2,2,2-trifluoroacetate] |

Source: patent US10100022B2, “Sphingosine kinase inhibitors” (University of Virginia Patent Foundation, priority 2014, dated 2018)
